Laboratory results taken from article PMC7044277 (Nature Communications, 2020).
Values joined by “and” are separate entries in the source; they are usually repeats but may differ in a detail not shown here. Identical values can stand only once.

Experiments:
Type in all cases: cell-based
320 non-olfactory GPCRs [1] = target: T1, 320 non-olfactory GPCRs (Homo sapiens, UniProt Q02643)
T1 construct: expressed in transfected cells; host or cells: HTLA cells

320 non-olfactory GPCRs [2] = target: T2, 320 non-olfactory GPCRs (Homo sapiens, UniProt P55085)
T2 construct: expressed in transfected cells; host or cells: HTLA cells
T2 sequence (P55085 26-397): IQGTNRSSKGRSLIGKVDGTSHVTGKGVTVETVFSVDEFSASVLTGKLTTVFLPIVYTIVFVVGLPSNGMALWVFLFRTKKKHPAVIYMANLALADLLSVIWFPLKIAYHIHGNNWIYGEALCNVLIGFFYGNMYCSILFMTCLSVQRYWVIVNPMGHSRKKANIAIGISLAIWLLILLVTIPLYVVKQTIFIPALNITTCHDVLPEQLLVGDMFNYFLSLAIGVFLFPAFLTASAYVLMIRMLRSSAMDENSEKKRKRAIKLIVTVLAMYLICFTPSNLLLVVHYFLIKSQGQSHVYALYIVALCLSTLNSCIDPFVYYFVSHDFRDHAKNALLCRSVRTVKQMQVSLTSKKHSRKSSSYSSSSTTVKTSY

320 non-olfactory GPCRs [3] = target: T3, 320 non-olfactory GPCRs (Homo sapiens, UniProt Q9NS75)
T3 construct: expressed in transfected cells; host or cells: HTLA cells
T3 sequence (Q9NS75 whole entry): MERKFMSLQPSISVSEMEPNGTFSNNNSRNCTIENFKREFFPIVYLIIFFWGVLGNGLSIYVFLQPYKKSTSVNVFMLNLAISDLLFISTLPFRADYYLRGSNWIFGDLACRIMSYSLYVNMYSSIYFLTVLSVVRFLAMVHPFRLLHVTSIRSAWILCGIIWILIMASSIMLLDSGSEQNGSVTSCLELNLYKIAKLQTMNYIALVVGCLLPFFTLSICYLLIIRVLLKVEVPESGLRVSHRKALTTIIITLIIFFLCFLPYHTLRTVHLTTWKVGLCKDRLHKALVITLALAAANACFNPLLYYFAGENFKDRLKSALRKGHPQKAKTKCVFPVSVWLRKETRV

320 non-olfactory GPCRs [4] = target: T4, 320 non-olfactory GPCRs (Homo sapiens, UniProt Q9H1Y3); conditions: receptor OPN3; replicate values, Fig_4g
T4 construct: expressed in transfected cells; host or cells: HTLA cells
T4 sequence (Q9H1Y3 whole entry): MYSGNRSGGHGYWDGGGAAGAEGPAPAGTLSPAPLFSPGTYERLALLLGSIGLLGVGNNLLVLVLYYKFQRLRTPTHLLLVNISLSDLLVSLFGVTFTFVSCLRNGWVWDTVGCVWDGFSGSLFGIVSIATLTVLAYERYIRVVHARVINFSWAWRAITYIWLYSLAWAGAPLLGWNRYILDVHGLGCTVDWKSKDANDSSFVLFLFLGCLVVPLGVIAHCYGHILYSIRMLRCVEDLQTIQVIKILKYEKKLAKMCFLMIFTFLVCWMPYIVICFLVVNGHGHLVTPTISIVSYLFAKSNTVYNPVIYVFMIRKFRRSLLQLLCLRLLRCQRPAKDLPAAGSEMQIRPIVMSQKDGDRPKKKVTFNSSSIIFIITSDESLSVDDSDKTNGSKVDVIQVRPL
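Wherever Fold of Basal is given: compound tested at 1 µM final concentration.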
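Wherever GPCRome agonism screen response is given: fold over basal response of each receptor without drug.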

T1 sequence (Q02643 23-423): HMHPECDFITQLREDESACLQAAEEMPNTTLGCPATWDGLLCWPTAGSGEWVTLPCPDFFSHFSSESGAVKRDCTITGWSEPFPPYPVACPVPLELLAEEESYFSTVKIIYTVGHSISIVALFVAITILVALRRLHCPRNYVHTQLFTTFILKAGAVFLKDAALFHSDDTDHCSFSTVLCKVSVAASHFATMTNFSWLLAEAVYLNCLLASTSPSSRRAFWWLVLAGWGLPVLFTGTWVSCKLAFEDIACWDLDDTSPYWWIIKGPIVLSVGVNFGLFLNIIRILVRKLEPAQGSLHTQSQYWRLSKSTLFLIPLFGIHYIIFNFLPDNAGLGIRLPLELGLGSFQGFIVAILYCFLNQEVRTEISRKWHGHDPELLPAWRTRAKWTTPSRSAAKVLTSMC

CCOc1cccc2cc(C(C)NCC3(O)CCCCC3)oc12 (stereo not shown) [O4LE6]
Fold of Basal (320 non-olfactory GPCRs [1]): 1.559 and 1.547 and 1.735 and 1.472 | Fold of Basal (320 non-olfactory GPCRs [2]): 0.6754 and 1.05 and 1.156 and 0.8918 | Fold of Basal (320 non-olfactory GPCRs [3]): 2.056 and 1.771 and 2.16 and 1.536 | GPCRome agonism screen response (320 non-olfactory GPCRs [4]): 1.462 and 1.944 and 1.753 and 1.142
